What follows are compounds tested on production of TNF by monocytes activated with bacterial lipopolysaccharide (LPS) (assay: Lipopolysaccharide-activated monocyte TNF production assay). Conditions: Homo sapiens, read-out: IC50 values in the monocyte assay (LPS induced TNF release).
Type: cell-based
Description: Lipopolysaccharide-Activated Monocyte TNF Production Assay
Test compounds were evaluated in vitro for the ability to inhibit the production of TNF by monocytes activated with bacterial lipopolysaccharide (LPS). Fresh residual source leukocytes (a byproduct of plateletpheresis) were obtained from a local blood bank, and peripheral blood mononuclear cells (PBMCs) were isolated by density gradient centrifugation on Ficol-Paque Plus (Pharmacia). PBMCs were suspended at 2×10^6/ml in DMEM supplemented to contain 2% FCS, 10 mM, 0.3 mg/ml […], 100 U/ml penicillin G and […] streptomycin sulfate (complete media). Cells were plated into Falcon flat bottom, 96 well culture plates (200 μl/well) and cultured overnight at 37° C. and 6% CO2. Non-adherent cells were removed by washing with 200 μl/well of fresh medium. Wells containing adherent cells (˜70% monocytes) were replenished with 100 μl of fresh medium.
Preparation of Test Compound Stock Solutions
Test compounds were dissolved in […]. Compound stock solutions were prepared to an initial concentration of […]. Stocks were diluted initially to 20-200 μM in complete media. Nine two-fold serial dilutions of each compound were then prepared in complete medium.
Treatment of Cells with Test Compounds and Activation of TNF Production with Lipopolysaccharide
One hundred microliters of each test compound dilution were added to microtiter wells containing adherent monocytes and 100 μl complete medium. Monocytes were cultured with test compounds for 60 min at which time 25 μl of complete medium containing 30 ng/ml lipopolysaccharide from E. coli K532 were added to each well. Cells were cultured an additional 4 hrs. Culture supernatants were then removed and TNF presence in the supernatants was quantified using an ELISA.
Flat bottom, 96 well Corning High Binding ELISA plates were coated overnight (4° C.) with 150 μL/well of 3 μg/ml murine anti-human TNF-α MAb (R&D Systems #MAB210). Wells were then blocked for 1 hr at room temperature with 200 μL/well of CaCl2-free ELISA buffer supplemented to contain 20 mg/ml BSA (standard ELISA buffer: […], 150 mM NaCl, 2 mM CaCl2, 0.15 mM thimerosal, pH 7.4). Plates were washed and replenished with 100 μl of test supernatants (diluted 1:3) or standards. Standards consisted of eleven 1.5-fold serial dilutions from a stock of 1 ng/ml recombinant human TNF (R&D Systems). Plates were incubated at room temperature for 1 hr on orbital shaker (300 rpm), washed and replenished with 100 μl/well of 0.5 ug/ml goat anti-human TNF-α (R&D systems #AB-210-NA) biotinylated at a 4:1 ratio. Plates were incubated for 40 min, washed and replenished with 100 μl/well of alkaline phosphatase-conjugated streptavidin (Jackson ImmunoResearch #016-050-084) at 0.02 ug/ml. Plates were incubated 30 min, washed and replenished with 200 μl/well of 1 mg/ml of p-nitrophenyl phosphate. After 30 min, plates were read at 405 nm on a Vmax plate reader.
Standard curve data were fit to a second order polynomial and unknown TNF-α concentrations determined from their OD by solving this equation for concentration. TNF concentrations were then plotted vs. test compound concentration using a second order polynomial. This equation was then used to calculate the concentration of test compounds causing a 50% reduction in TNF production.

Row | SMILES | IC50 [µM]
1 | Cc1cc(NC(=O)c2ccc(C)c(-c3ccc4nc(N)ncc4c3)c2)c(N(C)CCCN(C)C)cc1C [Example 116, 3-(2-amino-6-quinazolinyl)-N-(2-((3-(dimethylamino)propyl)(methyl)amino)-4,5-dimethylphenyl)-4-methylbenzamide] | ≤ 25
2 | Cc1ccc(C(=O)Nc2c(N(C)CCCN(C)C)ccc(C(F)(F)F)c2C)cc1-c1ccc2nc(N)ncc2c1 [Example 117, 3-(2-amino-6-quinazolinyl)-N-(6-((3-(dimethylamino)propyl)(methyl)amino)-2-methyl-3-(trifluoromethyl)phenyl)-4-methylbenzamide] | ≤ 25
3 | Cc1ccc(C(=O)Nc2ccc(C(F)(F)F)cc2N(C)CCCN(C)C)cc1-c1ccc2nc(N)ncc2c1 [Example 118, 3-(2-amino-6-quinazolinyl)-N-(2-((3-(dimethylamino)propyl)(methyl)amino)-4-(trifluoromethyl)phenyl)-4-methylbenzamide] | ≤ 25
4 | COc1ccc(NC(=O)c2ccc(C)c(-c3ccc4nc(N)ncc4c3)c2)cc1C(F)(F)F [Example 119, 3-(2-amino-6-quinazolinyl)-4-methyl-N-(4-(methyloxy)-3-(trifluoromethyl)phenyl)benzamide] | ≤ 25
5 | Cc1ccc(C(=O)Nc2cccc(C(F)(F)F)c2)cc1-c1ccc2nc(N)ncc2c1 [Example 120, 3-(2-amino-6-quinazolinyl)-4-methyl-N-(3-(trifluoromethyl)phenyl)benzamide] | ≤ 25
6 | Cc1ccc(C(=O)N[C@@H](C)c2nccs2)cc1-c1ccc2nc(N)ncc2c1 [Example 121, 3-(2-amino-6-quinazolinyl)-4-methyl-N-((1S)-1-(1,3-thiazol-2-yl)ethyl)benzamide] | ≤ 25
7 | CCN(CC)CCCOc1ccc(NC(=O)c2ccc(C)c(-c3ccc4nc(N)ncc4c3)c2)cc1C(F)(F)F [Example 122, 3-(2-amino-6-quinazolinyl)-N-(4-((3-(diethylamino)propyl)oxy)-3-(trifluoromethyl)phenyl)-4-methylbenzamide] | ≤ 25
8 | Cc1ccc(C(=O)Nc2ccc(OC3CCN(C)CC3)c(C(F)(F)F)c2)cc1-c1ccc2nc(N)ncc2c1 [Example 123, 3-(2-amino-6-quinazolinyl)-4-methyl-N-(4-((1-methyl-4-piperidinyl)oxy)-3-(trifluoromethyl)phenyl)benzamide] | ≤ 25
9 | Cc1ccc(C(=O)Nc2ccc(F)c(C(F)(F)F)c2)cc1-c1ccc2nc(N)ncc2c1 [Example 124, 3-(2-amino-6-quinazolinyl)-N-(4-fluoro-3-(trifluoromethyl)phenyl)-4-methylbenzamide] | ≤ 25
10 | Cc1ccc(C(=O)Nc2ccc(C#N)c(C(F)(F)F)c2)cc1-c1ccc2nc(N)ncc2c1 [Example 125, 3-(2-amino-6-quinazolinyl)-N-(4-cyano-3-(trifluoromethyl)phenyl)-4-methylbenzamide] | ≤ 25
11 | Cc1cc(F)c(C(=O)Nc2cccc(C(F)(F)F)c2)cc1-c1ccc2nc(N)ncc2c1 [Example 126, 5-(2-amino-6-quinazolinyl)-2-fluoro-4-methyl-N-(3-(trifluoromethyl)phenyl)benzamide] | ≤ 25
12 | Cc1ccc(C(=O)Nc2ccc(C(C)(C)C)cc2)cc1-c1ccc2nc(N)ncc2c1 [Example 128, 3-(2-amino-6-quinazolinyl)-N-(4-(1,1-dimethylethyl)phenyl)-4-methylbenzamide] | ≤ 25
13 | Nc1ncc2cc(-c3cc(C(=O)Nc4cccc(C(F)(F)F)c4F)ccc3F)ccc2n1 [Example 136, 3-(2-amino-6-quinazolinyl)-4-fluoro-N-(2-fluoro-3-(trifluoromethyl)phenyl)benzamide] | ≤ 25
14 | Nc1ncc2cc(-c3cc(C(=O)Nc4cccc(C(F)(F)F)c4)ccc3F)ccc2n1 [Example 137, 3-(2-amino-6-quinazolinyl)-4-fluoro-N-(3 (trifluoromethyl)phenyl)benzamide] | ≤ 25
15 | COc1ccc(C(C)(C)C)cc1NC(=O)c1ccc(F)c(-c2ccc3nc(N)ncc3c2)c1 [Example 138, 3-(2-amino-6-quinazolinyl)-N-(5-(1,1-dimethylethyl)-2-(methyloxy)phenyl)-4-fluorobenzamide] | ≤ 25
16 | COc1ccc(C(C)(C)C)cc1NC(=O)c1ccc(Cl)c(-c2ccc3nc(N)ncc3c2)c1 [Example 139, 3-(2-amino-6-quinazolinyl)-4-chloro-N-(5-(1,1-dimethylethyl)-2-(methyloxy)phenyl)benzamide] | ≤ 25
17 | Nc1ncc2cc(-c3cc(C(=O)Nc4cccc(C(F)(F)F)c4F)ccc3Cl)ccc2n1 [Example 140, 3-(2-amino-6-quinazolinyl)-4-chloro-N-(2-fluoro-3-(trifluoromethyl)phenyl)benzamide] | ≤ 25
18 | Cc1c(NC(=O)c2ccc(Cl)c(-c3ccc4nc(N)ncc4c3)c2)cccc1C(F)(F)F [Example 141, 3-(2-amino-6-quinazolinyl)-4-chloro-N-(2-methyl-3-(trifluoromethyl)phenyl)benzamide] | ≤ 25
19 | Nc1ncc2cc(-c3cc(C(=O)Nc4cccc(OC(F)(F)F)c4)ccc3Cl)ccc2n1 [Example 142, 3-(2-amino-6-quinazolinyl)-4-chloro-N-(3-((trifluoromethyl)oxy)phenyl)benzamide] | ≤ 25
20 | COc1ccc(Cl)cc1NC(=O)c1ccc(C)c(-c2ccc3nc(N)ncc3c2)c1 [Example 143, 3-(2-amino-6-quinazolinyl)-N-(5-chloro-2-(methyloxy)phenyl)-4-methylbenzamide] | ≤ 25
21 | Cc1ccc(C(=O)Nc2cc(C(F)(F)F)ccc2OCCCN(C)C)cc1-c1ccc2nc(N)ncc2c1 [Example 144, 3-(2-amino-6-quinazolinyl)-N-(2-((3-(dimethylamino)propyl)oxy)-5-(trifluoromethyl)phenyl)-4-methylbenzamide] | ≤ 25
22 | COc1ccc(C(=O)Nc2ccccc2)cc1NC(=O)c1ccc(C)c(-c2ccc3nc(N)ncc3c2)c1 [Example 145, 3-(2-amino-6-quinazolinyl)-4-methyl-N-(2-(methyloxy)-5-((phenylamino)carbonyl)phenyl) benzamide] | ≤ 25
23 | CSc1ccc(C(F)(F)F)cc1NC(=O)c1ccc(C)c(-c2ccc3nc(N)ncc3c2)c1 [Example 146, 3-(2-amino-6-quinazolinyl)-4-methyl-N-(2-(methylsulfanyl)-5-(trifluoromethyl)phenyl)benzamide] | ≤ 25
24 | Cc1ccc(F)c(NC(=O)c2ccc(C)c(-c3ccc4nc(N)ncc4c3)c2)c1 [Example 147, 3-(2-amino-6-quinazolinyl)-N-(2-fluoro-5-methylphenyl)-4-methylbenzamide] | ≤ 25
25 | COc1ccc(OC)c(NC(=O)c2ccc(C)c(-c3ccc4nc(N)ncc4c3)c2)c1 [Example 148, 3-(2-amino-6-quinazolinyl)-N-(2,5-bis(methyloxy)phenyl)-4-methylbenzamide] | ≤ 25
26 | Nc1ncc2cc(-c3cc(C(=O)Nc4cc(C(F)(F)F)ccc4N4CCCC4)ccc3Cl)ccc2n1 [Example 155, 3-(2-amino-6-quinazolinyl)-4-chloro-N-(2-(1-pyrrolidinyl)-5-(trifluoromethyl)phenyl)benzamide] | ≤ 25
27 | Nc1ncc2cc(-c3cc(C(=O)Nc4cc(C(F)(F)F)ccc4N4CCCCC4)ccc3Cl)ccc2n1 [Example 156, 3-(2-amino-6-quinazolinyl)-4-chloro-N-(2-(1-piperidinyl)-5-(trifluoromethyl)phenyl)benzamide] | ≤ 25

— patent US20070054916A1, “Aryl nitrogen-containing bicyclic compounds and methods of use” (Amgen Inc., priority 2004, published 2007)
